The results in this text go back to US10015966B2, “Fungicidal pyrazole mixtures” (E I DU PONT DE NEMOURS AND COMPANY, priority 2012, dated 2018).

Structures are written as SMILES. Read-outs that look alike come from different tables or passages of the source. Marks after values point to notes of the source that are not given here.

Format in all cases: in vivo
For data set [1], the system named is Septoria tritici. Kind of data set: Test F: preventive spray on wheat seedlings, wheat leaf blotch, visual disease rating. As to conditions: Zymoseptoria tritici, 200 ppm test suspension. The protocol: General protocol for preparing test suspensions for Tests A-I: the test compounds were first dissolved in acetone in an amount equal to 3% of the final volume and then suspended at the desired concentration (in ppm) in acetone and purified water (50/50 mix by volume) containing 250 ppm of the surfactant Trem® 014 (polyhydric alcohol esters). The resulting test suspensions were then used in Tests A-I. Each test was conducted in triplicate, and the results were averaged. Spraying a 200 ppm test suspension to the point of run-off on the test plants was the equivalent of a rate of about 800 g/ha. Unless otherwise indicated, the rating values indicate a 200 ppm test suspension was used. (An asterisk “*” next to the rating value indicates a 40 ppm test suspension was used.) The test suspension was sprayed to the point of run-off on wheat seedlings. The following day the seedlings were inoculated with a spore suspension of Septoria tritici (the causal agent of wheat leaf blotch) and incubated in saturated atmosphere at 24° C. for 48 h. and then the seedlings were moved to a growth chamber at 20° C. for 19 additional days, after which time visual disease ratings were made. Results for Tests A-I are given in Table A. In the Table, a rating of 100 indicates 100% disease control and a rating of 0 indicates no disease control (relative to the controls). A hyphen (-) indicates no test results.

The subject of data set [2] is Rhizoctonia solani. Kind of data set: Test D: preventive spray on creeping bent grass seedlings, turf brown patch, disease rating. As to conditions: 200 ppm test suspension. The procedure: General protocol for preparing test suspensions for Tests A-I: the test compounds were first dissolved in acetone in an amount equal to 3% of the final volume and then suspended at the desired concentration (in ppm) in acetone and purified water (50/50 mix by volume) containing 250 ppm of the surfactant Trem® 014 (polyhydric alcohol esters). The resulting test suspensions were then used in Tests A-I. Each test was conducted in triplicate, and the results were averaged. Spraying a 200 ppm test suspension to the point of run-off on the test plants was the equivalent of a rate of about 800 g/ha. Unless otherwise indicated, the rating values indicate a 200 ppm test suspension was used. (An asterisk “*” next to the rating value indicates a 40 ppm test suspension was used.) The test suspension was sprayed to the point of run-off on creeping bent grass (Agrostis sp.) seedlings. The following day the seedlings were inoculated with a bran and mycelial slurry of Rhizoctonia solani (the causal agent of turf brown patch) and incubated in a saturated atmosphere at 27° C. for 48 h, and then moved to a growth chamber at 27° C. for 3 days, after which time disease ratings were made. Results for Tests A-I are given in Table A. In the Table, a rating of 100 indicates 100% disease control and a rating of 0 indicates no disease control (relative to the controls). A hyphen (-) indicates no test results.

In data set [3] the test system is Phytophthora infestans. Particulars: tomato late blight.
Data set [4] relates to Puccinia recondita f. sp. tritici. Kind of data set: Test G: curative spray on inoculated wheat seedlings, wheat leaf rust, visual disease rating. As to conditions: 200 ppm test suspension. The protocol: General protocol for preparing test suspensions for Tests A-I: the test compounds were first dissolved in acetone in an amount equal to 3% of the final volume and then suspended at the desired concentration (in ppm) in acetone and purified water (50/50 mix by volume) containing 250 ppm of the surfactant Trem® 014 (polyhydric alcohol esters). The resulting test suspensions were then used in Tests A-I. Each test was conducted in triplicate, and the results were averaged. Spraying a 200 ppm test suspension to the point of run-off on the test plants was the equivalent of a rate of about 800 g/ha. Unless otherwise indicated, the rating values indicate a 200 ppm test suspension was used. (An asterisk “*” next to the rating value indicates a 40 ppm test suspension was used.) Wheat seedlings were inoculated with a spore suspension of Puccinia recondita f. sp. tritici (the causal agent of wheat leaf rust) and incubated in a saturated atmosphere at 20° C. for 24 h, and then moved to a growth chamber at 20° C. for 2 days. At the end of this time the test suspension was sprayed to the point of run-off, and then the seedlings were moved to a growth chamber at 20° C. for 4 days after which time visual disease ratings were made. […]

Data set [5] is described as follows: Single oral dose pharmacokinetics in rats, plasma and fat analysed by LC/MS (fat:plasma ratio). Particulars: single dose via oral gavage, compared to corresponding compounds with a nonhydrogen substituent at the para position of the phenyl ring connected to R^1 and R^2. The protocol: The pharmacokinetic properties of compounds of Formula 1 can be measured using a wide variety of assay protocols known in the science of pharmacology. In one illustrative method involving a single oral dose, three male and three female rats receive a single dose of a test substance via oral gavage. Approximately 0.25 mL of blood is collected via tail vein immediately prior to dosing, and then at 0.25, 0.5, 1, 2, 4, 8, 12, 24 h and every 24 h thereafter until sacrifice. At sacrifice, fat is also collected to determine the fat:plasma ratio at sacrifice. Blood is collected into tubes that contain ethylenediaminetetracetic acid (EDTA) and centrifuged at 2500×g in order to separate plasma from blood cells. The plasma is then extracted by protein precipitation using, for example, acetonitrile and a protein precipitation plate (e.g., Strata Impact Protein Precipitation Plate, part number CEO-7565 of Phenomenex, Torrance, Calif., U.S.A.) following directions provided for the plate. Alternatively, the plasma is extracted just with acetonitrile, vortexed (i.e. mixed using a vortex mixer), and centrifuged to pellet the proteins. After removal of the proteins, the plasma is analyzed for parent compound and/or metabolites by liquid chromatography-mass spectrometry (LC/MS). The fat is homogenized and extracted by an organic solvent such as acetonitrile. The extract is then analyzed for parent compound and/or metabolites by LC/MS. The plasma pharmacokinetic data is then analyzed using nonlinear modeling software (e.g., WinNonlin™ from Pharsight, Cary, N.C., U.S.A.) to determine half-life of the administered compound in plasma, the time after administration when the maximum plasma concentration is reached (Tmax), the maximum plasma concentration (Cmax) and the area under the plasma concentration curve (AUC). As analysis of fat requires rat sacrifice, fat data is obtained at single time points (i.e. the time of rat sacrifice). However, by using multiple rats sacrificed after different intervals from time of dosing, such parameters as Cmax for fat are determined.

For `Cc1nn(C)c(Nc2ccccc2F)c1-c1ccc(F)cc1Cl` [Compound 1, 4-(2-chloro-4-fluorophenyl)-N-(2-fluorophenyl)-1,3-dimethyl-1H-pyrazol-5-amine], the pest or weed control at 200 ppm in data set [1] worked out at 100%. Besides, the “Test D rating (% disease control)” value in data set [2] came to 99%. The “Test C rating (% disease control)” value in data set [3] (200 ppm test suspension, preventive spray) is on record as 0%.

As to `Cc1nn(C)c(Nc2c(F)cccc2F)c1-c1ccc(F)cc1Cl` [Compound 2, 4-(2-chloro-4-fluorophenyl)-N-(2,6-difluorophenyl)-1,3-dimethyl-1H-pyrazol-5-amine], the “Test G rating (% disease control)” value in data set [4] is on record as 0%. The molecule further showed a pest or weed control at 200 ppm in data set [1] of 100%.

Regarding `Cc1nn(C)c(Nc2c(F)cccc2Cl)c1-c1ccc(F)cc1Cl` [Compound 3, 4-(2-chloro-4-fluorophenyl)-N-(2-chloro-6-fluorophenyl)-1,3-dimethyl-1H-pyrazol-5-amine], the “Test G rating (% disease control)” value in data set [4] turned out to be 100%. Moreover, the pest or weed control at 200 ppm in data set [1] came out at 100%. In addition, in data set [5], the distribution into fat entry is recorded as “significantly diminished distribution into fat”. Also, the “Test C rating (% disease control)” value in data set [3] (asterisked rating: test suspension other than 200 ppm) is given as 0* %.
